This is an account of results in US9376391B2, “Difluoromethyl-nicotinic-tetrahydronaphthyl carboxamides as fungicides” (BAYER CROPSCIENCE AKTIENGESELLSCHAFT, priority 2012, dated 2016).

Series [1] in a line: log P by HPLC on reversed phase columns (EEC directive 79/831 Annex V.A8). Type of series: physicochemical. Particulars: Table 1, formula (I); HPLC/LC-MS at pH 2.7, 0.1% formic acid in water / acetonitrile, gradient 10% to 95%.
Another series concerns Alternaria brassicae. Kind of series: In vivo preventive test on Alternaria brassicae (leaf spot on radish). The following applies: spray, graded 6 days after contamination vs control plants. The protocol:
In Vivo Preventive Test on Alternaria brassicae (Leaf Spot on Radish)
(§1) The active ingredients tested are prepared by homogenization in a mixture of acetone/tween/DMSO, and then diluted with water to obtain the desired active material concentration.
Radish plants (“Pernod Clair” variety), sown in starter cups on a 50/50 peat soil-pozzolana substrate and grown at 17° C., are treated at the cotyledon stage by spraying with the active ingredient prepared as described above. Plants, used as controls, are treated with the mixture of acetone/tween/DMSO/water not containing the active material.
After 24 hours, the plants are contaminated by spraying the cotyledons with an aqueous suspension of Alternaria brassicae spores (50 000 spores per ml). The spores are collected from a 15-day-old culture. The contaminated radish plants are incubated at 20° C. and at 100% relative humidity.
Grading (% of efficacy) is carried out 6 days after the contamination, in comparison with the control plants.

In another series the test system is Botrytis cinerea. Kind of series: In vivo preventive test on Botrytis cinerea (grey mould), gherkin plants. Particulars: for Eff. %: gherkin, spray, graded 4 to 5 days after contamination vs control plants. As to the method: In Vivo Preventive Test on Botrytis cinerea (Grey Mould)
(§2) The active ingredients tested are prepared by homogenization in a mixture of acetone/tween/DMSO and then diluted with water to obtain the desired active material concentration.
(§3) Gherkin plants (“Vert petit de Paris” variety), sown in starter cups on a 50/50 peat soil-pozzolana substrate and grown at 24° C., are treated at the Z11 cotyledon stage by spraying with the active ingredient prepared as described above. Plants, used as controls, are treated with the mixture of acetone/tween/DMSO/water not containing the active material.
After 24 hours, the plants are contaminated by spraying the cotyledons with an aqueous suspension of cryopreserved Botrytis cinerea spores (50 000 spores per ml). The spores are suspended in a nutrient solution composed of 10 g/L of PDB, 50 g/L of D-Fructose, 2 g/L of NH4NO3 and 1 g/L of KH2PO4. The contaminated gherkin plants are incubated at 17° C. and at 90% relative humidity.
Grading (% of efficacy) is carried out 4 to 5 days after the contamination, in comparison with the control plants.

A further series relates to Puccinia recondita. Kind of series: In vivo preventive test on Puccinia recondita (brown rust on wheat). The following applies: for Eff. %: wheat, spray, graded 12 days after contamination vs control plants. The gist of the method:
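Wheat seedlings ("Scipion") sprayed with compound at the 1-leaf stage, inoculated 24 h later with Puccinia recondita spores (100 000 spores per ml). Incubated 24 h at 20° C and 100% RH, then 10 days at 20° C and 70-80% RH. Efficacy (%) versus solvent-treated controls graded 12 days after contamination.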

For a further series, the system named is Sphaerotheca fuliginea. Kind of series: In vivo preventive test on Sphaerotheca fuliginea (powdery mildew on cucurbits). Particulars: for Eff. %: preventive spray. The protocol: In Vivo Preventive Test on Sphaerotheca fuliginea (Powdery Mildew on Cucurbits)
as §2, §3
After 24 hours, the plants are contaminated by spraying the cotyledons with an aqueous suspension of Sphaerotheca fuliginea spores (100 000 spores per ml). The spores are collected from infected plants. The contaminated gherkin plants are incubated at about 20° C. and at 70-80% relative humidity.
Grading (% of efficacy) is carried out 12 days after the contamination, in comparison with the control plants.

The next series deals with Uromyces appendiculatus. Kind of series: In vivo preventive test on Uromyces appendiculatus (bean rust). The following applies: preventive spray, bean plants, grading 11 days after contamination. The gist of the method: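 'Saxa' bean plants at the 2-leaf stage were sprayed with compound and inoculated 24 h later with U. appendiculatus spores (150 000 spores per ml). Plants were incubated 24 h at 20 °C and 100% RH, then 10 days at 20 °C and 70–80% RH. Percent efficacy versus solvent-treated controls was graded 11 days post-inoculation.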

A further series relates to Phakopsora pachyrhizi. Kind of series: Phakopsora test (soybeans)/preventive. Type of series: in vivo. Particulars: evaluated 7 days after inoculation. As to the method: Phakopsora Test (Soybeans)/Preventive
To produce a suitable preparation of active compound, 1 part by weight of active compound is mixed with the stated amounts of solvent and emulsifier, and the concentrate is diluted with water to the desired concentration.
To test for preventive activity, young plants are sprayed with the preparation of active compound at the stated rate of application. After the spray coating has dried on, the plants are inoculated with an aqueous spore suspension of the causal agent of soybean rust (Phakopsora pachyrhizi) and stay for 24 h without light in an incubation cabinet at approximately 24° C. and a relative atmospheric humidity of 95%.
The plants remain in the incubation cabinet at approximately 24° C. and a relative atmospheric humidity of approximately 80% and a day/night interval of 12 h.
The test is evaluated 7 days after the inoculation. 0% means an efficacy which corresponds to that of the untreated control, while an efficacy of 100% means that no disease is observed.

Another series has as its system Pyrenophora teres. Kind of series: In vivo preventive test on Pyrenophora teres (net blotch on barley). Particulars: for Eff. %: barley, spray, graded 14 days after contamination vs control plants. As to the method:
In Vivo Preventive Test on Pyrenophora teres (Net Blotch on Barley)
as §1
Barley plants (“Plaisant” variety), sown in starter cups on a 50/50 peat soil-pozzolana substrate and grown at 22° C., are treated at the 1-leaf stage (10 cm height) by spraying with the active ingredient prepared as described above. Plants, used as controls, are treated with the mixture of acetone/tween/DMSO/water not containing the active material.
After 24 hours, the plants are contaminated by spraying the leaves with an aqueous suspension of Pyrenophora teres spores (12 000 spores per ml). The spores are collected from a 12-day-old culture. The contaminated barley plants are incubated for 48 hours at 20° C. and at 100% relative humidity, and then for 12 days at 20° C. at 70-80% relative humidity.
Grading (% of efficacy) is carried out 14 days after the contamination, in comparison with the control plants. plants.

Another series deals with Septoria tritici. Kind of series: In vivo preventive test on Septoria tritici (leaf spot on wheat). The following applies: preventive spray, wheat plants, grading 24 days after contamination. The protocol: In Vivo Preventive Test on Septoria tritici (Leaf Spot on Wheat)
as §1
Wheat plants (“Scipion” variety), sown in starter cups on a 50/50 peat soil-pozzolana substrate and grown at 22° C., are treated at the 1-leaf stage (10 cm height) by spraying with the active ingredient prepared as described above. Plants, used as controls, are treated with the mixture of acetone/tween/DMSO/water not containing the active material.
After 24 hours, the plants are contaminated by spraying the leaves with an aqueous suspension of cryopreserved Septoria tritici spores (500 000 spores per ml). The contaminated wheat plants are incubated for 72 hours at 18° C. and at 100% relative humidity, and then for 21 days at 90% relative humidity.
Grading (% of efficacy) is carried out 24 days after the contamination, in comparison with the control plants.

Setting [2] is: 100 ppm, gherkin plants, grading 12 days after contamination.
Setting [3] is: 500 ppm, gherkin plants, grading 12 days after contamination.
Where [4] appears, read: dose 100 ppm of active ingredient, comparison with known compounds.
The mark [5] stands for this setting: dose 100 ppm, comparison with known compounds, same conditions.

On to `CCC1(C)CC(C)c2c(NC(=O)c3cccnc3C(F)F)cccc21` (mixture of isomers) [Example 81], for which the “logP^[a]” value in [1] is 3.64^[a]. The Eff. % with Alternaria brassicae (dose 100 ppm) is 70%; in the series on Botrytis cinerea (dose 100 ppm), 100%; in the series on Puccinia recondita (dose 100 ppm), 100%; in the series on Sphaerotheca fuliginea (setting [2]) it was 94%; with Uromyces appendiculatus (100 ppm) it was 99%; with Phakopsora pachyrhizi (10 ppm of active ingredient), 100%.

As to `CC1CC(C)(C)c2cccc(NC(=S)c3cccnc3C(F)F)c21` (racemic) [Example 9], the “logP^[a]” value in [1] was 3.74^[a]. Further, the Eff. % is reported as 86% in the series with Pyrenophora teres (dose 500 ppm); 100% in the series with Puccinia recondita (dose 500 ppm); 98% in the series on Septoria tritici (500 ppm); 100% in the series on Sphaerotheca fuliginea (setting [3]); 100% in the series on Uromyces appendiculatus (500 ppm); 99% with Phakopsora pachyrhizi (100 ppm of active ingredient).

Turning to `CC1OC(C)(C)c2cccc(NC(=O)c3cccnc3C(F)F)c21` (racemic) [Example 12], the “logP^[a]” value in series [1] was 2.11^[a]. For the same compound, the Eff. % with Botrytis cinerea (dose 500 ppm) is 100%; with Pyrenophora teres (dose 500 ppm), 86%; with Puccinia recondita (dose 500 ppm), 100%; with Septoria tritici (500 ppm), 96%; in the series on Uromyces appendiculatus (500 ppm) it was 100%.

Take `CCC1Cc2c(NC(=O)c3cccnc3C(F)F)cccc2C1(C)C` (racemic) [Example 37]: the “logP^[a]” value in series [1] is 3.78^[a]. For the same compound, the Eff. % in the series with Alternaria brassicae (dose 500 ppm) turned out to be 96%; in the series with Puccinia recondita (dose 500 ppm) it was 100%; in the series on Septoria tritici (500 ppm) it was 97%; with Sphaerotheca fuliginea (setting [3]), 100%; with Uromyces appendiculatus (500 ppm), 100%; in the series with Phakopsora pachyrhizi (10 ppm of active ingredient), 95%.

Consider `CC(C)C1Cc2c(NC(=O)c3cccnc3C(F)F)cccc2C1(C)C` (racemic) [Example 43], for which the “logP^[a]” value in series [1] is 4.11^[a]. For the same compound, the Eff. % came out at 100% in the series on Alternaria brassicae (dose 500 ppm); 98% in the series with Puccinia recondita (dose 500 ppm); 86% in the series with Septoria tritici (500 ppm); 100% in the series with Sphaerotheca fuliginea (setting [3]); 100% in the series on Uromyces appendiculatus (500 ppm); 98% in the series on Phakopsora pachyrhizi (10 ppm of active ingredient).

As to `CC(C)C1OC(C)(C)c2cccc(NC(=O)c3cccnc3C(F)F)c21` (racemic) [Example 76], in [1], the “logP^[a]” value was 2.73^[a]. The Eff. % in the series on Alternaria brassicae (dose 100 ppm) was 75%; in the series with Botrytis cinerea (dose 100 ppm), 98%; in the series with Pyrenophora teres (dose 100 ppm), 92%; in the series with Puccinia recondita (dose 100 ppm), 94%; with Septoria tritici (100 ppm), 97%; in the series on Sphaerotheca fuliginea (setting [2]), 98%. The Eff. % with Uromyces appendiculatus (100 ppm) is recorded as 96%.

Regarding `CC1CC(C)(C)c2cccc(NC(=O)c3ccccc3C(F)F)c21` (stereo not shown) [2-(difluoromethyl)-N-(1,1,3-trimethyl-2,3-dihydro-1H-inden-4-yl)benzamide, reference compound], the “protection (in words)” value is recorded as “no protection at all” in the series on Botrytis cinerea (setting [4]), “lower protection” in the series with Pyrenophora teres (setting [4]), “low protection” in the series on Puccinia recondita (setting [4]) and “lower protection” in the series with Sphaerotheca fuliginea (setting [4]). Also, the Efficacy with Botrytis cinerea (setting [5]) worked out at 0%; in the series on Pyrenophora teres (setting [5]), 0%; with Puccinia recondita (setting [5]), 83%; in the series on Sphaerotheca fuliginea (dose 100 ppm, comparison with prior-art compounds, gherkin plants, grading 12 days after contamination), 0%.

Consider `CC1Cc2c(NC(=O)c3cccnc3C(F)F)cccc2C1(C)C` (stereo not shown) [Example 14], for which the “logP^[a]” value in series [1] is 3.33^[a]. The Eff. % in the series with Pyrenophora teres (dose 500 ppm) amounted to 92%; in the series with Puccinia recondita (dose 500 ppm), 100%; in the series with Septoria tritici (500 ppm), 97%; in the series on Sphaerotheca fuliginea (setting [3]), 98%; with Uromyces appendiculatus (500 ppm), 100%; in the series with Phakopsora pachyrhizi (10 ppm of active ingredient) it was 100%.

On to `CC(C)C1c2cccc(NC(=O)c3cccnc3C(F)F)c2CC1C` (stereo not shown) [Example 27], for which, in series [1], the “logP^[a]” value is 3.78^[a]. The Eff. % was 100% in the series on Botrytis cinerea (dose 500 ppm); 83% in the series on Pyrenophora teres (dose 500 ppm); 100% in the series with Puccinia recondita (dose 500 ppm); 86% in the series with Septoria tritici (500 ppm); 100% in the series with Sphaerotheca fuliginea (setting [3]); 100% in the series on Uromyces appendiculatus (500 ppm).

Take `CC1CC(CC(C)(C)C)c2cccc(NC(=O)c3cccnc3C(F)F)c21` (stereo not shown) [Example 46]: the “logP^[a]” value in series [1] was 4.39^[a]. Also, the Eff. % is listed as 98% in the series with Alternaria brassicae (dose 500 ppm); 83% with Botrytis cinerea (dose 500 ppm); 98% in the series with Puccinia recondita (dose 500 ppm); 71% in the series with Septoria tritici (500 ppm); 100% in the series with Sphaerotheca fuliginea (setting [3]); 100% with Uromyces appendiculatus (500 ppm). This compound also registered an Eff. % in the series with Phakopsora pachyrhizi (10 ppm of active ingredient) of 90%.

As for `CC(C)C1Cc2c(NC(=S)c3cccnc3C(F)F)cccc2C1(C)C` (stereo not shown) [Example 65], in series [1], the “logP^[a]” value is 4.46^[a]. Moreover, the Eff. % in the series with Botrytis cinerea (dose 100 ppm) came out at 100%; in the series on Pyrenophora teres (dose 100 ppm) it was 70%; in the series with Puccinia recondita (dose 100 ppm), 98%; in the series with Septoria tritici (100 ppm), 80%; in the series with Sphaerotheca fuliginea (setting [2]), 98%; in the series with Uromyces appendiculatus (100 ppm), 100%.

In the case of `CC(C)CC1CCc2cccc(NC(=O)c3cccnc3C(F)F)c21` (stereo not shown) [Example 84], the “logP^[a]” value in series [1] was 3.62^[a]. Moreover, the Eff. % in the series with Botrytis cinerea (dose 100 ppm) was 99%; with Pyrenophora teres (dose 100 ppm), 75%; in the series on Puccinia recondita (dose 100 ppm), 97%; with Septoria tritici (100 ppm) it was 100%; with Sphaerotheca fuliginea (setting [2]), 100%; with Uromyces appendiculatus (100 ppm), 100%.

Consider `CC(C)(C)CC1CCc2cccc(NC(=O)c3cccnc3C(F)F)c21` (stereo not shown) [Example 90], for which the “logP^[a]” value in [1] was 3.92^[a]. In addition, the Eff. % in the series with Alternaria brassicae (dose 100 ppm) was found to be 93%; with Botrytis cinerea (dose 100 ppm), 80%; with Pyrenophora teres (dose 100 ppm) it was 86%; with Puccinia recondita (dose 100 ppm), 98%; in the series with Septoria tritici (100 ppm), 96%; in the series with Sphaerotheca fuliginea (setting [2]), 100%. Also, the Eff. % in the series on Uromyces appendiculatus (100 ppm) is 100%.
